Experimental data published in patent publication US20230293475A1, “METHODS OF PROVIDING SO[…] TO SUBJECTS WITH IMPAIRED RENAL FUNCTION” (Axsome Malta Ltd., priority 2020, published 2023).
Read-outs that look alike come from different tables or passages of the source.

Assay: Phase 1 single-dose study, urinary excretion of solriamfetol
Type: in vivo, human
Details: for Fe(0-48), fraction of the dose excreted unchanged in urine in 48 hours, mean ± SD (%CV) / CL renal: single 75-mg dose; for cumulative amount excreted in urine: Group 5 ESRD, 1 participant; for CL renal: both sexes, human, urine, oral, 75 mg, read-out: CLR, renal clearance, mean ± SD (%CV) (converted)
Procedure: Groups 1-4 received one dose of solriamfetol HCl (89.3 mg; equivalent to 75-mg solriamfetol) on day 1; Group 5 received one dose equivalent to 75-mg dose on day 1 followed by 4-hour hemodialysis (designated Group 5.2), and one dose equivalent to 75-mg solriamfetol on day 8 without hemodialysis (designated Group 5.1). All doses were administered on an empty stomach following an overnight fast except for participants in Group 5, who received a standardized snack on day 7 and breakfast early on day 8 before starting an 8-hour fast. Participants remained fasting for 4 hours after administration, with water allowed except for 1 hour before and after dosing.
Urine samples were collected predose and for the time intervals of 0-4, 4-8, 8-12, 12-24, and 24-48 hours in Groups 1-3, with additional collection for the 48-72 hour time interval in Groups 4 and 5. During the hemodialysis period on day 1 for Group 5, dialysate samples and pre- and post-dialyzer paired blood samples were collected at pre-dialysis (2 hours), and at 3, 4, 5, and 6 hours following dosing. Urine and dialysate samples were aliquoted into polypropylene tubes for freezing and storage at -70° C. until analysis. All blood, urine, and dialysate samples were shipped on dry ice to a central bioanalytical laboratory.
Bioanalytical analyses were performed by a central laboratory (KCAS, LLC, Shawnee, Kansas) using validated proprietary methods that included extraction/derivatization and liquid chromatography-tandem mass spectrometry (LC-MS/MS). Measurement of solriamfetol was over the linear range of 8.42 to 4,210 ng/mL in plasma, 0.21 to 84.2 µg/mL in urine, and 1.68 to 842 ng/mL in dialysate. Solriamfetol was removed from dialysate samples with use of the Fresenius Optiflux F180NR dialyzer (Fresenius Medical Care, Waltham, Massachusetts). Assay performance was monitored by spiking blank interference free human plasma with positive controls and internal standards to generate standard curve and quality control samples. After derivatization, samples were chromatographed on a C8 reversed phase analytical HPLC (high-performance liquid chromatography) column, with subsequent monitoring using an API4000 LC-MS/MS unit (Sciex, Framingham, Massachusetts). Quantification was based on setting a calibration graph using the internal standard method. Coefficients of variation (CVs) for quality control samples were 3.2% to 6.0% for the plasma samples, 1.6% to 5.6% for the urine samples, and 3.5% to 7.1% for the dialysate samples.
The following plasma PK parameters were evaluated using non-compartmental analysis in Phoenix® WinNonlin® Version 6.3: Cmax; time to reach Cmax following drug administration (tmax); t½; area under the plasma concentration-time curve from time zero to time of last quantifiable concentration (AUCt); AUC from time zero to infinity (AUC∞); apparent total clearance of the drug from plasma after oral administration (CL/F); and apparent volume of distribution (Vd/F). The PK parameters for solriamfetol in urine included the amount of unchanged drug excreted in urine (Ae) over 48 or 72 hours; the fraction of the dose excreted unchanged in urine (Fe); and renal clearance of the drug (CLR). For participants on hemodialysis (Group 5), the additional PK parameters included the amount of solriamfetol cleared by the 4-hour hemodialysis (Adial); the fraction of dose removed by the 4-hour hemodialysis (Fdial); and hemodialysis clearance (CLdial) calculated as CLdial = Adial/AUCdial where AUCdial is the area under the pre-dialyzer plasma concentration-time curve during the hemodialysis period.

[1] = Group 3 moderate renal impairment
[2] = Group 4 severe renal impairment

Compound: NC(=O)OC[C@H](N)Cc1ccccc1 [solriamfetol, [R]-2-amino-3-phenylpropylcarbamate]
- Fe(0-48), fraction of the dose excreted unchanged in urine in 48 hours, mean ± SD (%CV) (Group 1 normal renal function): 85.8%
- Fe(0-48), fraction of the dose excreted unchanged in urine in 48 hours, mean ± SD (%CV) (Group 2 mild renal impairment): 80.0%
- Fe(0-48), fraction of the dose excreted unchanged in urine in 48 hours, mean ± SD (%CV) [1]: 66.4%
- Fe(0-48), fraction of the dose excreted unchanged in urine in 48 hours, mean ± SD (%CV) [2]: 57.1%
- cumulative amount excreted in urine (with hemodialysis): 42.1%
- cumulative amount excreted in urine (without hemodialysis): 52.9%
- CL renal (Group 1 normal renal function): 283 mL/min
- CL renal (Group 2 mild renal impairment): 155 mL/min
- CL renal [1]: 96.7 mL/min
- CL renal [2]: 63.3 mL/min
- mean percentage of dose recovered in urine as unchanged drug over 72 hours (severe renal impairment): 64.0%
